Laboratory results as given in patent US4252795A, “N-substituted dimeric cyclopeptide derivatives and preparation thereof” (Ayerst McKenna and Harrison Inc., priority 1978, dated 1981).

Key:
Klebsiella pneumoniae = test: serial broth dilution, growth inhibition; format: cell-based; conditions: nutrient broth, incubated at 37° C. for 2 days, examined for presence of growth
Experimental: (§1) Grove and W. A. Randall in "Assay Methods of Antibiotics", Med. Encycl. Inc., [New York] 955. […] 289.
(§2) For example, by employing a test like the serial broth dilution, see Grove and Randall, cited above, in which dilutions of the compounds of this invention in nutrient broth are inoculated with the microorganisms or fungi, described above, incubated at 37° C. for 2 days, respectively, and examined for the presence of growth, it may be shown that the preferred compounds N'N'-dicyclohexyl-α,α'-diisopropyl-2,5,8,11,14,17-hexaoxo-1,4,7,10,13,16-hexaazacyclooctadecane-1,10-diacetamide, isomer L, (Example 1), N'N'-dicyclohexyl-α,α'-diisopropyl-2,5,8,11,14,17-hexaoxo-1,4,7,10,13,16-hexaazacyclooctadecane-1,10-diacetamide, isomer M, (Example 1), and α,α'-diphenyl-N'N'-dicyclohexyl-2,5,8,11,14,17-hexaoxo-1,4,7,10,13,16-hexaazacyclooctadecane-1,10-diacetamide, isomer L, (Example 1) are able to inhibit growth totally in this system of Klebsiella pneumoniae and Serratia marcescens at a concentration of 100 mcg/ml.

Serratia marcescens = test: serial broth dilution, growth inhibition; format: cell-based; conditions: nutrient broth, incubated at 37° C. for 2 days, examined for presence of growth
Experimental: as §1, §2

Row | SMILES | concentration able to inhibit growth totally (Klebsiella pneumoniae) [µg/mL] | concentration able to inhibit growth totally (Serratia marcescens) [µg/mL]
1 | CC(C)C(C(=O)NC1CCCCC1)N1CC(=O)NCC(=O)NCC(=O)N(C(C(=O)NC2CCCCC2)C(C)C)CC(=O)NCC(=O)NCC1=O (stereo not drawn) [N,N'-Dicyclohexyl-α,α'-diisopropyl-2,5,8,11,14,17-hexaoxo-1,4,7,10,13,16-hexaazacyclooctadecane-1,10-diacetamide] | 100 | 100
2 | O=C1CNC(=O)CN(C(C(=O)NC2CCCCC2)c2ccccc2)C(=O)CNC(=O)CNC(=O)CN(C(C(=O)NC2CCCCC2)c2ccccc2)C(=O)CN1 (stereo not drawn) [α,α'-diphenyl-N,N'-dicyclohexyl-2,5,8,11,14,17-hexaoxo-1,4,7,10,13,16-hexaazacyclooctadecane-1,10-diacetamide] | 100 | 100
